The experiment deals with Microcystis aeruginosa. The experiment is described as follows: Inhibition of algal growth, detection of Chlorophyll-a content by spectrometry (absorbance at 665 nm after ethanol extraction). It counts as cell-based. On the procedure: In the following embodiment, three specimens, chitosan, glucosamine, and the combination of both, were used as inhibitors to inhibit algal growth and their inhibition efficiency was tested as well. In this embodiment, one kind of toxic Cyanobacteria, Microcystis aeruginosa, is used for the inhibition test. Since chlorophyll-a content of algae is widely used as an indicator of the abundance of algae in a freshwater body, the chlorophyll-a content of Microcystis aeruginosa in the sample was detected by spectrometry.
First, four 0.5 ml portions of Microcystis aeruginosa solution were obtained and were labeled as sample I, II, III and IV, respectively, and 49.5 ml of Bold's medium was added to each sample. Next, chitosan, glucosamine, and the combination were added to sample II, III and IV, respectively, so that sample II contains 10 ppm chitosan, and sample III contains 10 ppm glucosamine, and sample IV contains 5 ppm chitosan and 5 ppm glucosamine. Sample I without any chitosan and glucosamine added was used as the control. After that, these four samples were cultured for 14 days. During that time, the Chlorophyll-a content of four samples were detected every 7 days according to the procedures mentioned below.
A portion of each sample was obtained and centrifuged at 10000 rpm at 20° C. for 15 mins, and then the supernatant was poured out. Next, four 10 ml portions of 95% (v/v) ethanol were added to sample I to IV and mixed with the residues. Next, the solution of each sample was water-bathed in 60° C. water for 30 mins to extract Chlorophyll-a. When being bathed in the water, the solution of each sample was shaken every ten minutes. After that, the solutions were centrifuged at 5000 G at 20° C. for 15 minutes and the supernatants were kept. Then, the absorbance at 665 nm of […] were detected. Finally, according to the “Standard Methods for the Examination Chlorophyll-a in Water-Ethanol Extraction” issued by National Institute of Environmental Analysis, Taiwan (NIEA E508.00B), the absorbance at 665 nm of samples I to IV were calibrated and the concentration of Chlorophyll-a content of each sample was calculated by the absorbance measured.
Basically, the whole process was the same as mentioned above except the concentration of chitosan and glucosamine in samples, and the Chlorophyll-a content was also detected. The concentration of glucosamine and chitosan contained in each sample and the Chlorophyll-a content detected are show in Table 2.

With `N[C@H]1C(O)O[C@H](CO)[C@@H](O)[C@@H]1O` (stereo partly drawn) [III, glucosamine], the “Chlorophyll-a Content” value is 6.9 ppb (Embodiment I, 0th day, Microcystis aeruginosa in Bold's medium); 33 ppb (Embodiment I, 7th day, control (sample I) 278 ppb); 554 ppb (Embodiment I, 14th day, control (sample I) 2470 ppb); 50 ppb (Embodiment II, 7th day, Blank 62 ppb, original content 9.7 ppb); 124 ppb (Embodiment II, 14th day, Blank 418 ppb, original content 9.7 ppb). Further, the “inhibition of the growth of algae (in words)” value (Microcystis aeruginosa, chlorophyll-a as indicator) was “could inhibit the growth of algae”.

Values taken from patent US20090280984A1, “Method of Inhibiting the Growth of Algae” (ITEQ CORPORATION, priority 2008, published 2009).
